Measurements as given in US9604983B2, “Herbicidal 3-(2-benzyloxyphenyl)-2,4-dihydroxy-1,8-naphthyridine derivatives” (SYNGENTA LIMITED, priority 2013, dated 2017).

Assays:
Test in all cases: Post-emergence efficacy, glasshouse pot test
Format in all cases: in vivo
Conditions in all cases: post-emergence application at 1000 g/ha; evaluated after 13 days; five point scale
[1] = test system: Alopecurus myosuroides (ALOMY)
Experimental: (§1) B1 Post-emergence Efficacy Seeds of a variety of test species are sown in standard soil in pots:—Solanum nigrum (SOLNI), Amaranthus retoflexus (AMARE), Setaria faberi (SETFA), Alopecurus myosuroides (ALOMY), Echinochloa crus-galli (ECHCG), Ipomoea hederacea (IPOHE). After 8 days cultivation (post-emergence) under controlled conditions in a glasshouse (at 24/16° C., day/night; 14 hours light; 65% humidity), the plants are sprayed with an aqueous spray solution derived from the formulation of the technical active ingredient in acetone/water (50:50) solution containing 0.5% Tween 20 (polyoxyethelyene sorbitan monolaurate, CAS RN 9005-64-5). Compounds are applied at 1000 g/ha. The test plants are then grown in a glasshouse under controlled conditions in a glasshouse (at 24/16° C., day/night; 14 hours light; 65% humidity) and watered twice daily. After 13 days, the test is evaluated for the percentage damage caused to the plant. The biological activities are shown below in Table 13, on a five point scale (5=80-100%; 4=60-79%; 3=40-59%; 2=20-39%; 1=0-19%).

[2] = test system: Amaranthus retoflexus (AMARE)
Experimental: as §1

[3] = test system: Echinochloa crus-galli (ECHCG)
Experimental: as §1

[4] = test system: Ipomoea hederacea (IPOHE)
Experimental: as §1

[5] = test system: Setaria faberi (SETFA)
Experimental: as §1

[6] = test system: Solanum nigrum (SOLNI)
Experimental: as §1

| Structure (SMILES) | percentage damage caused to the plant, ALOMY [1] | percentage damage caused to the plant, AMARE [2] | percentage damage caused to the plant, ECHCG [3] | percentage damage caused to the plant, IPOHE [4] | percentage damage caused to the plant, SETFA [5] | percentage damage caused to the plant, SOLNI [6] |
| --- | --- | --- | --- | --- | --- | --- |
| C#CCn1c(=O)c(-c2c(F)ccc(Cl)c2OCc2ccccc2)c(OC(=O)C(C)C)c2cccnc21 [Compound 5.001] | 1 (1=0-19%) | 5 (5=80-100%) | 3 (3=40-59%) | 5 (5=80-100%) | 2 (2=20-39%) | 5 (5=80-100%) |
| C#CCn1c(=O)c(-c2cccc(Cl)c2OCc2ccccc2)c(OC(=O)C(C)C)c2cccnc21 [Compound 9.001] | 1 (1=0-19%) | 3 (3=40-59%) | 2 (2=20-39%) | 5 (5=80-100%) | 1 (1=0-19%) | 5 (5=80-100%) |
| Cc1ccc(COc2c(Cl)ccc(Cl)c2-c2c(OC(=O)C(C)C)c3cccnc3n(CC(F)F)c2=O)cc1 [Compound 3.004] | 1 (1=0-19%) | 4 (4=60-79%) | 1 (1=0-19%) | 5 (5=80-100%) | 1 (1=0-19%) | 5 (5=80-100%) |
| CC(C)C(=O)Oc1c(-c2c(F)ccc(Cl)c2OCc2ccccc2)c(=O)n(CC(F)F)c2nccnc12 [Compound 7.003] | 2 (2=20-39%) | 5 (5=80-100%) | 2 (2=20-39%) | 5 (5=80-100%) | 5 (5=80-100%) | 5 (5=80-100%) |
| CC(C)C(=O)Oc1c(-c2c(Cl)ccc(Cl)c2OCc2ccc(C(F)(F)F)cc2)c(=O)n(CC(F)F)c2ncccc12 [Compound 3.006] | 1 (1=0-19%) | 5 (5=80-100%) | 1 (1=0-19%) | 5 (5=80-100%) | 1 (1=0-19%) | 5 (5=80-100%) |
| COc1ccnc2c1c(O)c(-c1c(F)ccc(Cl)c1OCc1ccccc1)c(=O)n2CC(F)F [Compound 8.002] | 4 (4=60-79%) | 5 (5=80-100%) | 4 (4=60-79%) | 5 (5=80-100%) | 4 (4=60-79%) | 5 (5=80-100%) |
| C#CCn1c(=O)c(-c2c(Cl)ccc(Cl)c2OCc2ccccc2)c(OC(=O)C(C)C)c2nccnc21 [Compound 1.008] | 5 (5=80-100%) | 5 (5=80-100%) | 5 (5=80-100%) | 5 (5=80-100%) | 5 (5=80-100%) | 5 (5=80-100%) |
| CC(C)C(=O)Oc1c(-c2c(Cl)ccc(Cl)c2OCc2ccccc2)c(=O)n(CC(F)F)c2nccnc12 [Compound 3.008] | 4 (4=60-79%) | 5 (5=80-100%) | 5 (5=80-100%) | 5 (5=80-100%) | 5 (5=80-100%) | 5 (5=80-100%) |
| CC(C)C(=O)Oc1c(-c2c(Cl)ccc(Cl)c2OCc2ccccc2)c(=O)n(CC(F)F)c2ncccc12 [Compound 3.001] | 2 (2=20-39%) | 5 (5=80-100%) | 2 (2=20-39%) | 5 (5=80-100%) | 1 (1=0-19%) | 5 (5=80-100%) |
| O=c1c(-c2cccc(Cl)c2OCc2ccccc2)c(O)c2cccnc2n1CC(F)F [Compound 12.001] | 1 (1=0-19%) | 5 (5=80-100%) | 1 (1=0-19%) | 5 (5=80-100%) | 1 (1=0-19%) | 5 (5=80-100%) |
| C#CCn1c(=O)c(-c2c(Cl)ccc(Cl)c2OCc2ccc(OC)cc2)c(O)c2cccnc21 [Compound 2.002] | 5 (5=80-100%) | 4 (4=60-79%) | 5 (5=80-100%) | 5 (5=80-100%) | 5 (5=80-100%) | 5 (5=80-100%) |
| C#CCn1c(=O)c(-c2c(Cl)ccc(Cl)c2OCc2ccc(Cl)cc2)c(O)c2cccnc21 [Compound 2.003] | 3 (3=40-59%) | 5 (5=80-100%) | 5 (5=80-100%) | 5 (5=80-100%) | 4 (4=60-79%) | 5 (5=80-100%) |
| O=c1c(-c2cccc(Cl)c2OCc2ccccc2)c(O)c2nccnc2n1CC(F)F [Compound 12.003] | 2 (2=20-39%) | 5 (5=80-100%) | 5 (5=80-100%) | 5 (5=80-100%) | 5 (5=80-100%) | 5 (5=80-100%) |
| CC(C)C(=O)Oc1c(-c2cccc(Cl)c2OCc2ccccc2)c(=O)n(CC(F)F)c2ncccc12 [Compound 11.001] | 1 (1=0-19%) | 5 (5=80-100%) | 1 (1=0-19%) | 5 (5=80-100%) | 1 (1=0-19%) | 5 (5=80-100%) |
